Measurements published in BindingDB's records for doi:10.1021/jm050680m (Johnson & Johnson Pharmaceutical Research and Development, 2005).

Legend:
[1] = Antiproliferative activity against PDGF-BB stimulated HCASMC
[2] = as above; remark: listed apart in the source

| IC50 [1] [nM] | IC50 [2] [nM] | Compound |
| --- | --- | --- |
| 32 |  | COc1cc2c(cc1OC)-c1n[nH]c(Nc3cccc(Br)c3)c1C2 [3-bromo-N-(6,7-dimethoxy-2,4-dihydroindeno[1,2-c]pyrazol-3-yl)phenylamine] |
|  | 11 | COC(=O)c1cccc(Nc2[nH]nc3c2Cc2cc(OC)c(OC)cc2-3)c1 [3-carbomethoxy-N-(6,7-dimethoxy-2,4-dihydroindeno[1,2-c]pyrazol-3-yl)phenylamine] |
|  | 1 | COc1cc2c(cc1OC)-c1n[nH]c(Nc3cccc(C(F)(F)F)c3)c1C2 [3-trifluoromethyl-N-(6,7-dimethoxy-2,4-dihydroindeno[1,2-c]pyrazol-3-yl)phenylamine] |
|  | 487 | COc1cccc2c1Cc1c-2n[nH]c1Nc1ccccc1 [(5-methoxy-2,4-dihydroindeno[1,2-c]pyrazol-3-yl)phenylamine] |
|  | 3 | COc1cc2c(cc1OC)-c1n[nH]c(Nc3cccc(F)c3)c1C2 [JNJ-10198409] |
